Measured values from the supplement of paper PMC6470124.

Legend:
[1] = absolute recovery over mixed-bed multilayer solid-phase extraction; higher = better recovery; settings: enrichment method: SPE
In short: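 Absolute recovery was calculated by comparing background-corrected response ratios of samples spiked before extraction with those spiked after it, averaged over at least two replicates. Wastewater (100–250 mL, adjusted to pH 6.5 and glass-fibre filtered) or 1000 mL of unfiltered nanopure water was passed through a three-layer mixed-bed cartridge and eluted with basic and then acidic ethyl acetate/methanol. Standards were added before extraction, after extraction, or not at all, at 200 ng/L in water or 1000 ng/L in wastewater, with exceptions for some classes. Internal standards were added afterwards, and samples were analysed by liquid chromatography with high-resolution tandem mass spectrometry in both ionisation modes.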

[2] = LC retention time (Atlantis T3, 5-95% MeOH gradient, 0.1% formic acid); higher = more retained / less polar
In short: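 Retention times were recorded for reference standards on a polar reversed-phase C18 column. The standards were of purity ≥ 95%, and the Atlantis T3 column (3 × 150 mm, 3 μm) was run at 0.3 mL/min with a gradient from 5 to 95% methanol over 17.5 min, both water and methanol containing 0.1% formic acid. Detection used high-resolution tandem mass spectrometry on a QExactive Plus, with positive and negative electrospray in separate runs, and peaks were integrated in TraceFinder (5 ppm tolerance, at least three points per peak) before being checked by hand.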

[3] = absolute recovery over vacuum-assisted evaporative concentration; higher = better recovery; settings: enrichment method: VEC
In short: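 Absolute recovery was calculated as (response ratio pre − unspiked)/(post − unspiked) × 100 from averages of ≥ 2 replicates. Influent (6 mL), effluent (15 mL), and surface and nanopure water (60 mL) samples were spiked with standards before concentration, after concentration, or not at all, at 200 ng/L for nanopure and surface water or 1000 ng/L for wastewater, with class- and compound-specific adjustments. Samples were evaporated at 55 °C and 20 mbar to about 0.3 mL, made up to 0.4 mL and centrifuged, then internal standards were added before LC-HRMS/MS analysis.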

Compound	absolute recovery ([1]; nanopure water)	absolute recovery ([1]; surface water)	absolute recovery ([1]; wastewater effluent)	absolute recovery ([1]; wastewater influent)	LC retention time [2]	absolute recovery ([3]; wastewater effluent)	absolute recovery ([3]; wastewater influent)
COc1cc(C)c(C(=O)c2c(OC)ccc(Br)c2C)c(OC)c1OC [Metrafenone]	103%	92.4%	85.4%	117%	21.4 min	84.4%	101%
CC(C)OC(=O)NC(C(=O)NC(C)c1nc2ccc(F)cc2s1)C(C)C (configuration not stated) [Benthiavalicarb-isopropyl]	94.2%	94.6%	95.3%	94.3%	19.7 min	108%	102%
COc1cc(OC)n2nc(S(=O)(=O)Nc3c(Cl)ccc(C)c3Cl)nc2n1 [Metosulam]	98.1%	96.2%	99.7%	92.6%	17 min	98.6%	106%
COc1ccc2c(c1)c(CC(=O)[O-])c(C)n2C(=O)c1ccc(Cl)cc1 [Indomethacin]	93.9%	95%	91.2%	91.5%	20.8 min	104%	98.9%
Cc1cccc(C)c1N(Cn1cccn1)C(=O)C(=O)[O-] [Metazachlor-OXA]	95.6%	97.5%	92.4%	87.4%	17.1 min	108%	103%
O=C([O-])c1cc(Br)c([O-])c(Br)c1 [3-5-Dibromo-4-hydroxybenzoic-acid]		92.6%	97.9%	94.4%	17.6 min	104%	99.2%
Cc1ccc(NC(=O)N(C)C)cc1Cl [Chlortoluron]	98%	101%	93%	94.8%	18.2 min	107%	102%
Nc1ccc(S(=O)(=O)[O-])cc1 [Sulfanilic-acid]	10.3%	3.8%	4.2%	6.4%	3.46 min	124%	96.5%
CCC(C)c1cc([N+](=O)[O-])cc([N+](=O)[O-])c1[O-] (configuration not stated) [Dinoseb]	103%	82.6%	89.1%	123%	21.5 min	94.2%	91.8%
CCCC1CC(C(=O)NC(C(C)Cl)C2OC(SC)C(O)C(O)C2O)[NH+](C)C1 (configuration not stated) [Clindamycin]	90.1%	94.8%	90%	78.7%	14.6 min	100%	73.2%
CON(C)C(=O)Nc1ccc(Cl)cc1 [Monolinuron]		92.4%	91.9%	94.2%	17.9 min	92.7%	
NS(=O)(=O)Cc1noc2ccccc12 [Zonisamide]	84.8%	88.8%	88.4%	107%	13.1 min	103%	101%
CCCOC(=O)NCCC[NH+](C)C [Propamocarb]	83%	83.9%	84.1%	86.5%	8.99 min	105%	105%
Cc1ncc([N+](=O)[O-])n1CCO [Metronidazol]	95.6%	91.3%	87.1%	95.9%	10 min	102%	102%
CC12CCC3=C4CCC(=O)C=C4CCC3C1CCC2(O)CC#N (configuration not stated) [Dienogest]	97.4%	81.6%	79%	87%	18.1 min	97.4%	92.2%
CSc1nnc(C(C)(C)C)c(=O)n1N [Metribuzin]	91.1%	94.1%	89.8%	95.2%	17.3 min	101%	99.6%
Fc1ccc(C2(Cn3cncn3)OC2c2ccccc2Cl)cc1 (configuration not stated) [Epoxiconazol]	100%	95.4%	93.9%	92.7%	20.3 min	103%	99.3%
CS(=O)(=O)c1ccc(C(=O)[C-]2C(=O)CCCC2=O)c(Cl)c1 [Sulcotrion]	97.7%	93.4%	94.8%	93.9%	16.7 min	103%	101%
CC(C)N(C(=O)CS(=O)(=O)[O-])c1ccc(F)cc1 [Flufenacet-ESA]	89.4%	84%	96.3%	96.4%	21.4 min	112%	109%
CC(C)[NH2+]CC(O)COc1ccc(CC(N)=O)cc1 (configuration not stated) [Atenolol]	92.1%	92.6%	87.4%	90.6%	8.64 min	107%	103%
Cc1onc(-c2ccccc2)c1C(=O)NC1C(=O)N2C1SC(C)(C)C2C(=O)[O-] (configuration not stated) [Oxacillin]	61.2%	10.8%	21.2%	33.4%	18.4 min	91.3%	
C[NH+]=C([N-][N+](=O)[O-])NCc1cnc(Cl)s1 [Clothianidin]		95.6%		94.1%	13.8 min	104%	106%
COP(=O)(OC)SCn1c(=O)oc2cc(Cl)cnc21 [Azamethiphos]	65.5%	65.7%	65.1%	50.5%	16.6 min	82.9%	67%
CC1CC2C3CCC4=CC(=O)C=CC4(C)C3(F)C(O)CC2(C)C1(O)C(=O)CO (configuration not stated) [Betamethasone]	93.8%	88.9%	90.5%	98.7%	18.7 min	104%	102%
O=[N+]([O-])C(Br)(CO)CO [Bronopol]	13.9%	6.4%	7%	7.8%	9.24 min	52.8%	
O=C(Nc1ccccc1)N(Cc1ccc(Cl)cc1)C1CCCC1 [Pencycuron]	84.2%	110%		80.4%	21.4 min	117%	124%

Compound	absolute recovery ([1]; nanopure water)	absolute recovery ([1]; surface water)	absolute recovery ([1]; wastewater effluent)	absolute recovery ([1]; wastewater influent)	LC retention time [2]	absolute recovery ([3]; wastewater effluent)	absolute recovery ([3]; wastewater influent)
[O-][n+]1nc(-n2ccnc2)nc2ccc(Cl)cc21 [Triazoxide]	87.3%	91.5%	87.4%	92.3%	17.5 min	105%	89%
COc1ccc(C(C[N+](C)(C)[O-])C2(O)CCCCC2)cc1 (configuration not stated) [Venlafaxine-N-Oxide]	93.2%	92.8%	94.6%	79.7%	14.6 min	105%	107%
CCCc1nc2c(C)cc(-c3nc4ccccc4n3C)cc2n1Cc1ccc(-c2ccccc2C(=O)[O-])cc1 [Telmisartan]	108%	82.5%	88.5%	126%	17.1 min	86.1%	82.1%
CCOC(=O)OC1=C(c2cc(C)ccc2C)C(=O)NC12CCC(OC)CC2 (configuration not stated) [Spirotetramat]	12%	16.9%	29.9%	27%	20 min	61.7%	54.9%
COCC(C)N(C(=O)C(=O)[O-])c1c(C)csc1C (configuration not stated) [Dimethenamid-OXA]	96.4%	99%		86.6%	19.8 min	105%	108%
CCOc1cc(CC(=O)NC(CC(C)C)c2ccccc2N2CCCCC2)ccc1C(=O)[O-] (configuration not stated) [Repaglinide]	95.4%	98.7%	102%	94.8%	19.3 min	120%	95.3%
CCCC(NC(C)C(=O)N1C(C(=O)[O-])CC2CCCCC21)C(=O)OCC (configuration not stated) [Perindopril]	97.7%	88.8%	91.5%	138%	15.5 min	95%	96.1%
Cc1ccc2[nH]nnc2c1 [5-Methyl-Benzotriazol]	95.7%			97.5%	15.4 min	102%	100%
COc1ccc2c3c1OC1C(O)CCC4C(C2)[NH+](C)CCC341 (configuration not stated) [Dihydrocodeine]	98.5%	107%	94.1%	97.7%	9.1 min	108%	100%
CC(C)N(C(=O)C(=O)[O-])c1ccc(F)cc1 [Flufenacet-OXA]	93.7%	91.2%	93%	92.4%	19.1 min	106%	99.5%
O=C(NCCN1CCOCC1)c1ccc(Cl)cc1 [Moclobemid]	91.4%	100%	90.8%	84.5%	11.6 min	105%	94%
CC(Cn1cnc2c(N)ncnc21)OCP(=O)([O-])O (configuration not stated) [Tenofovir]	70%		1.9%		7.16 min	105%	114%
CC#Cc1cc(C)nc(Nc2ccccc2)n1 [Mepanipyrim]	93.5%	107%	103%	94.9%	20.2 min	95.3%	62.1%
Cc1ccc(C(C)NC(=O)C(NC(=O)OC(C)C)C(C)C)cc1 (configuration not stated) [Iprovalicarb]	96.4%	85.1%	85.2%	98.8%	20.1 min	89.8%	92.3%
O=C1Nc2ccc(Cl)cc2C(C#CC2CC2)(C(F)(F)F)O1 (configuration not stated) [Efavirenz]	102%	104%	92.4%	134%	20.5 min	105%	124%
N#Cc1cc(Br)c([O-])c(Br)c1 [Bromoxynil]	92.1%	82.5%	86.9%	108%	18.6 min	101%	90.3%
CC(C)=NOCCOC(=O)C(C)Oc1ccc(Oc2cnc3cc(Cl)ccc3n2)cc1 (configuration not stated) [Propaquizafop]	79.1%	91.4%	93.7%	80.9%	22.4 min	68.4%	13.2%
O=c1ccn(C2OC(CO)C(O)C2(F)F)c(=O)[nH]1 (configuration not stated) [2-2-Difluorodeoxyuridin]	88.2%		95.1%		9.37 min	122%	88.2%
COC(=O)C(C)N(C(=O)Cc1ccccc1)c1c(C)cccc1C (configuration not stated) [Benalaxyl]	95.9%	93%	96%	105%	21.1 min	97.6%	94.9%
C=CC(=O)OCCOC(=O)CCC(=O)[O-] [Mono(2-acryloyloxyethyl)-succinate]	37.8%	71.7%	61.7%	53.1%	13.7 min	79.2%	31.6%
CC(=O)N(C)c1ccc(N)cc1 [N-(4-Aminophenyl)-N-methyl-acetamid]	64.8%	65.4%	56.8%	67.5%	7.84 min	97.6%	85%
CCN(CC)C(=O)C(C)Oc1cccc2ccccc12 (configuration not stated) [Napropamid]	96.6%	90.8%	89.3%	96.1%	20.3 min	88.4%	90.9%
NS(=O)(=O)c1cc(C2(O)NC(=O)c3ccccc32)ccc1Cl (configuration not stated) [Chlorthalidon]	94.1%		96.5%		14.2 min	98.1%	104%
CCS(=O)(=O)c1nc2ccccn2c1S(=O)(=O)[N-]C(=O)Nc1nc(OC)cc(OC)n1 [Sulfosulfuron]	101%	94.4%	94.6%	102%	19.4 min	108%	98.9%
NC(=O)Nc1ccc(Cl)c(Cl)c1 [Diuron-desdimethyl (=1-(3-4-Dichlorophenyl)urea)]	98.3%	100%	96.4%	94.9%	18 min	101%	102%
CC12C=CC(=O)C=C1CCC1C2C(O)CC2(C)C1CCC2(O)C(=O)CO (configuration not stated) [Prednisolon]	88%	82.7%	82.1%	91.4%	18 min	104%	63.1%
